Data published in US12521362B2, “Agent for treating, preventing, or improving psychiatric and nervous system disorders or symptoms” (TOKYO UNIVERSITY OF SCIENCE FOUNDATION, priority 2019, dated 2026).

Tests used:
[1] = test system: anxiety-like behaviors in mice; assay: Elevated plus maze (EPM) test of exploration behavior
Text: An elevated plus maze (EPM) apparatus (FIG. 1) was used to assess anxiety-like behaviors in mice administered with any of the test drugs. The EPM apparatus is a plus-shaped maze apparatus with open and closed arms and is used for assessment of anxiety-like behaviors of animals. Animals administered with a benzodiazepine (BZD) anxiolytic drug are known to increase the ratio of time spent in the open arm and the ratio of open arm entries. The EPM test is the most representative test available as a system for evaluating an anxiolytic drug.
Mice were acclimated to the testing laboratory for 60 minutes, and a prepared test drug was then administered to each mouse at a dose of 0.25 mL/20 g. After the elapse of a predetermined period of time from the administration of the drug, the EPM apparatus was used to quantify exploration behavior of the mouse for 5 minutes. The equations below were used to evaluate the effects of each test drug on exploration behavior in mice. Statistical analysis was performed with Dunnett's multiple comparison test, and a significant difference was considered at P<0.05. Time spent in open arm (%)−Time spent in open arm (sec)/{Time spent in open arm (sec)+Time spent in closed arm (sec)}×100 Open arm entry (%)−Open arm entries (times)/{Open arm entries (times)+Closed arm entries (times)}×100 Total arm entries (times)=Open arm entries (times)+Closed arm entries (times) 2.
Disulfiram was administered intraperitoneally to mice (n=8 per group) at a dose of 20, 40, or 80 mg/kg, and the mice were tested 30 minutes after the administration for their exploration behavior by using the EPM apparatus. As a positive control experiment, diazepam, a BZD anxiolytic drug, was administered subcutaneously to mice at a dose of 1.5 mg/kg (equivalent to the dose used clinically for humans), and the mice were similarly tested for their exploration behavior by using the EPM apparatus. A solution of 2% Tween 80, 10% DMSO, and 88% corn oil was administered intraperitoneally to mice in the solvent control group.
Disulfiram was administered to mice (n=8 per group) at a dose of 40 mg/kg, and the mice were tested 15, 30, 60, or 120 minutes after the administration for their exploration behavior by using the EPM apparatus.
Cyanamide was investigated for the presence of an anxiolytic-like effect. Cyanamide or disulfiram was administered to mice (n=6 per group) at a dose of 80 or 40 mg/kg, respectively, and the mice were tested 30 minutes after the administration for their exploration behavior by using the EPM apparatus.
The iron(III) complex of diethyldithiocarbamate (DDC) (Fe(DDC)3) as a disulfiram (DSF)-related compound was investigated for the presence of an anxiolytic-like effect. Each drug was administered intraperitoneally to mice in the Fe(DDC)3 dose group (n=5) and the DDC dose group (n=4) at a dose of 40 mg/kg. A solution of 2% Tween 80, 10% DMSO, and 88% corn oil was administered intraperitoneally to mice in the solvent control group (n=9). Thirty minutes after the administration, the elevated plus maze test was performed for 5 minutes.
The copper complex of DDC (Cu(DDC)2) as a DSF-related compound was investigated for the presence of an anxiolytic-like effect. Cu(DDC)2 was administered orally to mice (n=4) at a dose of 40 mg/kg. A solution of 2% Tween 80, 10% DMSO, and 88% corn oil was administered orally to mice in the solvent control group (n=4). Sixty minutes after the administration, the elevated plus maze test was performed for 5 minutes.

[2] = test system: object recognition function in mice; assay: Novel object location task (NOL), memory retrieval task; type: in vivo, Male C57BL/6J mice; conditions: DSF diet (0.8 mg DSF per 1 g diet) for 3 weeks; p<0.05 (FIG. 8)
Method: To 1 g of an MF diet, 0.8 mg of DSF and 50 mg of sucrose or only 50 mg of sucrose (without DSF) were added to prepare a DSF diet or a control diet, respectively, as a solid diet. The novel object location task (NOL) was conducted to assess object recognition function in mice administered with any of the test drugs. The NOL is a test used to evaluate the ability to remember the location of an object (Dix, S. L. & Aggleton, J. P., Behav Brain Res: 1999 March; 99(2): 191-200). Mice were placed in a 33 cm square white box (open field: OF) and allowed to explore the white box freely for 10 minutes every day in the period of 3 days (acclimation). On Day 4, two objects with the same shape were placed in the OF apparatus, and the mice were allowed to learn the locations of the objects (FIG. 8; learning). On Day 5, one of the objects was relocated to a location that was different from the original location during the learning tasks, and the mice were allowed to explore the objects for 5 minutes, and the length of time spent exploring the objects was measured (FIG. 8; memory retrieval task). […] In the NOL memory retrieval task, the length of time spent exploring each object was measured to evaluate the effect of each test drug on the cognitive ability of the mice.

[3] = test system: spatial learning ability in mice; assay: Morris water maze task (WM); type: in vivo, Male C57BL/6J mice; conditions: DSF diet for 4 weeks
Method: To 1 g of an MF diet, 0.8 mg of DSF and 50 mg of sucrose or only 50 mg of sucrose (without DSF) were added to prepare a DSF diet or a control diet, respectively, as a solid diet. Next, the Morris water maze task (WM) was conducted to assess spatial learning ability in mice administered with any of the test drugs. The WM is widely used for assessing spatial learning and memory in mice (Morris, R. G. M., Learning and Motivation: 1981, 12, 239-260). A WM apparatus was a circular pool of 120 cm in diameter, filled with white-colored water and equipped with a submerged platform (PF) on which a mouse was allowed to stand and rest. Mice were allowed to swim from a randomly selected starting point in the pool, and the distance spent swimming before reaching the hidden platform was measured (FIG. 9A). […] Thus, the spatial learning ability can be assessed based on the distance traveled to find the platform. […] The effect of a test drug on spatial memory formation was evaluated from the ratio of time spent exploring the area at each probe trial after the platform was removed from the original location. […] At the WM learning trials, the distance spent swimming before reaching the platform was measured every day to evaluate the effect of each test drug on the spatial learning of the mice. Moreover, the effect of each test drug on the spatial memory formation in the mice was evaluated at the probe trials.

[4] = test system: hyperemotional response and hyperactivity in mice; assay: Hyperemotional response and hyperactivity after chronic administration; type: in vivo, ICR mice; conditions: DSF diet freely for 3 months
Method: To 1 g of an MF diet, 0.8 mg of DSF and 50 mg of sucrose or only 50 mg of sucrose (without DSF) were added to prepare a DSF diet or a control diet, respectively, as a solid diet. ICR mice were allowed to eat the DSF diet (200 mg/day) freely for 3 months to assess hyperemotional response and hyperactivity. Hyperemotional response was evaluated in those mice according to the method of Kelly et al., (Kelly, J. P. et al., Pharmacol. Ther. Vol. 74, No. 3, pp. 299-316, 1997) by individually scoring (A) the response to an object placed in front of the nose, (B) the response to air blown thereon, or (C) the resistance to handling, based on the following criteria of emotional responses: • 0: no response; • 1: interest in the object, or only a slight movement, or easy to handle; • 2: protective or evasive actions against the object, or expression of surprise, or nervous but still easy to handle; • 3: aggressive actions such as biting, or clear expression of surprise, or nervous and difficult to handle; • 4: highly aggressive actions, or expression of surprise with jumping, or quite difficult to handle. The hyperactivity of each mouse was measured over a period of 30 seconds by counting the number of times the mouse crossed the lines that divided the floor of a cage to four areas.

[5] = test system: mouse models of depression (SDS models); assay: Social interaction (SI) test after social defeat stress (SDS models); type: in vivo, C57BL/6J mice; conditions: DSF diet freely for 3 months, then SDS for 10 days; control group SI time significantly decreased (FIG. 11)
Method: To 1 g of an MF diet, 0.8 mg of DSF and 50 mg of sucrose or only 50 mg of sucrose (without DSF) were added to prepare a DSF diet or a control diet, respectively, as a solid diet. C57BL/6J mice were allowed to eat the DSF diet (200 mg/day) freely for 3 months and then exposed to social defeat stress (SDS) for 10 days to create mouse models of depression (SDS models) (Golden S. A. et al., Nat Protoc. Vol. 6, No. 8, pp. 1183-1191, 2011). The SDS models were created by placing a single C57BL/6J mouse in a home cage where a male ICR mouse had been housed for a long period of time and exposing the mouse to physical aggression by the ICR mouse. In this study, the stress exposure was applied for 10 minutes a day in a period of consecutive 10 days. Depressive-like symptoms were evaluated by the social interaction (SI) test (Golden S. A. et al., 2011, supra). An apparatus composed of an open field apparatus (45 cm×45 cm×30 cm) and a mesh cage (8 cm×6 cm×30 cm) placed on one side of the open field apparatus was used to perform the SI test, in which the time (SI time) spent by the C57BL/6J mouse approaching and making contact with the ICR mouse (Target) in the mesh cage during the measurement time (2.5 minutes) was compared with that in the absence of the ICR mouse (Non-target).

[6] = test system: wild-type APP-transfected cells; conditions: in vitro, cultured cells; data of Patent Document 3; cited from earlier work
[7] = 80 mg/kg, 30 minutes after administration (FIG. 5)
[8] = intraperitoneal 40 mg/kg, 30 minutes, two mice with no sedative effect (FIG. 6)
[9] = subcutaneous 1.5 mg/kg, positive control (FIG. 3)
[10] = 40 mg/kg, time course 15-120 minutes
[11] = intraperitoneal 20, 40 or 80 mg/kg, 30 minutes after administration, dose-dependent, vs solvent control (FIG. 2)
[12] = oral 40 mg/kg, sixty minutes after administration (FIG. 7)

Question: What does the source list for N#CN [Cyanamide, cyanamide (H2 N—CN)]?
Answer: anxiolytic-like effect [1, 7]: no anxiolytic-like effect; ratio of open arm entries [1, 7]: no significant effects; ratio of time spent in the open arm [1, 7]: no significant effects

Question: With CCN(CC)C(=S)[S-].CCN(CC)C(=S)[S-].CCN(CC)C(=S)[S-].[Fe+3] [Fe(DDC)3, diethyldithiocarbamic acid ferric salt] as the compound, how does the anxiolytic-like effect ([1]; intraperitoneal 40 mg/kg, 30 minutes (FIG. 6)) read?
Answer: confirmed to have an anxiolytic-like effect

Question: And the sedative effect ([1]; intraperitoneal 40 mg/kg, 30 minutes, observed in three mice of n=5, no exploration)?
Answer: strong sedative effect

Question: And the “ratio of open arm entries” value [1, 8]?
Answer: significantly increased

Question: What about the “ratio of time spent in the open arm” value [1, 8] of the same compound?
Answer: significantly increased

Question: Which “ratio of open arm entries” value [1, 9] does the source give for CN1C(=O)CN=C(c2ccccc2)c2cc(Cl)ccc21 [diazepam, Diazepam] here?
Answer: increased

Question: What about the “ratio of time spent in the open arm” value [1, 9] of the same compound?
Answer: increased

Question: Which “ratio of time spent in the open arm” value ([1]; 40 mg/kg, tested 15, 30, 60 or 120 minutes after administration, increased from 15 minutes (FIG. 4)) does the source give for CCN(CC)C(=S)SSC(=S)N(CC)CC [disulfiram, tetraethylthiuram disulfide] here?
Answer: significantly increased

Question: And the “effect observed till (time after the administration)” value [1, 10]?
Answer: 60 min

Question: And the “time of peak anxiolytic-like effect” value [1, 10]?
Answer: 30 min

Question: What about the anxiolytic-like effect ([1]; disulfiram 40 mg/kg to 80 mg/kg i.p. compared with diazepam 1.5 mg/kg s.c.) of the same compound?
Answer: comparable to that of diazepam

Question: And the “ratio of open arm entries” value [1, 11]?
Answer: significantly increased

Question: And the “ratio of time spent in the open arm” value [1, 11]?
Answer: significantly increased

Question: What about the “time spent exploring the relocated object vs the object remaining at the original location” value [2] of the same compound?
Answer: significantly longer

Question: And the “distance traveled to find the platform” value ([3]; Days 4 and 6, p<0.05 vs control diet (FIG. 9A))?
Answer: shorter

Question: And the “time spent for exploring the platform area at the probe trial” value ([3]; probe trial on Day 5, p<0.05 vs control diet (FIG. 9B))?
Answer: significantly longer

Question: And the “hyperemotional response (score)” value ([4]; vs control diet group (FIG. 10A))?
Answer: significant decreases

Question: And the “hyperactivity (line crossings in 30 seconds)” value ([4]; vs control diet group (FIG. 10B))?
Answer: significant decreases

Question: What about the “SI time in the presence of the Target vs Non-target” value [5] of the same compound?
Answer: any change in SI time was not observed

Question: What about the “secretion of sAPPα” value [6] of the same compound?
Answer: promote secretion of sAPPα

Question: Which anxiolytic-like effect [1, 12] does the source give for “copper diethyldithiocarbamate [Cu(DDC)2]” here?
Answer: confirmed to have an anxiolytic-like effect

Question: And the “ratio of time spent in the open arm” value [1, 12]?
Answer: significantly increased

Question: What about the “ratio of open arm entries” value ([1]; oral 40 mg/kg, sixty minutes after administration, not significantly different (FIG. 7)) of the same compound?
Answer: clear tendency to increase
